Laboratory results taken from patent US8222008B2, “Methods and compositions for treating cancer” (The Administrators of The Tulane Educational Fund, priority 2003, dated 2012).

How the values were obtained:
[1] = tested on: human renal proximal tubule epithelial cells; assay: Effect of various compounds on apoptosis, CaspASE staining and FACS; assay type: cell-based
Procedure: Normal and cystinotic fibroblasts were purchased from the Coriell Mutant Cell Repository, and cultured in Coon modification of Ham F12 medium, supplemented with 10% fetal calf serum (FCS). Renal proximal tubule epithelial (RPTE; Biowhittaker Corp.) were cultured in renal epithelial basal medium supplemented with one Singlequots™ kit (Biowhittaker) per 500 mL to make renal epithelial growth media (REGM, Biowhittaker). Fibroblasts and RPTE were maintained in a 5% carbon dioxide, 95% air, humidified incubator at 37° C. (Thoene J. G. et al, 1976 J. Clin. Invest, 58:180-189).
Cultured human renal proximal tubule epithelial cells were incubated with various apoptotic compounds at a concentration of 0.5 mM for 16 hours. Following incubation, cells were stained with CaspASE. Fluorescence-activated cell sorting (Beckman Coulter Epics Elite) was used to determine the percentage of cells undergoing apoptosis from each treatment group.

[2] = tested on: GM005399 cells; assay: Apoptosis on serum withdrawal, CaspACE; assay type: cell-based, human; conditions: serum withdrawal and CDME
Procedure: Induction of apoptosis and assays for its detection were performed using commercially available reagents. Normal and cystinotic fibroblasts were matched for passage number (±3) and cell density, and then exposed to an apoptotic trigger. One apoptotic trigger used was TNF-a (30 ng/mL) with actinomycin D (2.5 μg/mL) for 16 hours. Another trigger was anti-Fas antibody (500 ng/mL) with actinomycin D (2.5 μg/mL) for 16 hours. A third trigger to induce apoptosis in the cells was Ultraviolet B light (60 mJ). See, e.g., previously described protocols of Aggarwal B B, 1992 Immunol. Ser., 56:61-78; Higuchi M. et al, 1995 J. Immunol. Meth., 178:173-181; Itoh N, et al, 1991 Cell, 66:233-243; Itoh N. et al, 1993 J. Biol. Chem., 268:10932-10937. Serum withdrawal was also used as a apoptotic stimulus (Lieberthal W, et al, 1998 Am. J. Physiol. 275:F691-F702; Verzola D. et al, 2001 Exp Nephrol., 9:366-371; Iglesias J. et al, 1999 Am. J. Physiol. 277:F711-F712; Kulkarni G V, et al, 1994 J. Cell Sci., 107:1169-1179), in which case the cells were incubated in F12 medium without serum for 24 hours and then analyzed for apoptosis.
1. […] The cells were visually enumerated by fluorescence microscopy, scoring a minimum of five fields (250 to 300 cells) for fluorescence in triplicate followed by counting all cells in the same field by light microscopy, with a minimum of 750 cells scored per condition. […]

[3] = tested on: normal fibroblasts; assay: Apoptosis after lysosomal cystine loading, CaspACE assay (FIG. 1); assay type: cell-based, human; conditions: 0.5 mM CDME 1 hour pretreatment, then TNF-a or UV, 16 hours in CDME-containing medium; control rate 7.2+/−1.3%
Procedure: 1. The CaspACE Assay • CaspACE (Promega) is an FITC-conjugated cell-permeable form of the pan-caspase inhibitor zVAD-Fmk, which binds to activated caspase(s). Cells were incubated in FITC-VAD-Fmk-containing medium (10 μM for 30 minutes at 37° C.), washed, and then fixed in 10% buffered formalin (30 minutes at room temperature) before analysis. The cells were visually enumerated by fluorescence microscopy, scoring a minimum of five fields (250 to 300 cells) for fluorescence in triplicate followed by counting all cells in the same field by light microscopy, with a minimum of 750 cells scored per condition. The apoptosis rate is the total number of cells that fluoresce divided by the total cells in the field.
(§1) Normal fibroblast lysosomes were loaded with cystine by the addition of 0.5 mM cystine dimethylester (CDME, Sigma) to normal culture medium for 1 hour before treatment (Pisoni, R L, et al, 1992 Somat. Cell. Mol. Genet., 18:1-6). The cells were treated with apoptotic triggers, leaving CDME in the medium to prevent lysosomal cystine loss, and then analyzed for apoptosis.
(§2) The lysosomal cystine content of normal fibroblasts was also altered as follows. Normal fibroblasts also at passage 7-13 were pretreated with 0.5 mM CDME for 1 hour, increasing the cystine content of their lysosomes to the cystinotic range (0.47 to 1.95 nmol of cystine per mg of protein). […]

[4] = tested on: normal fibroblasts; assay: Lysosomal cystine content, cystine binding protein assay; assay type: cell-based, human
Procedure: Intracellular lysosomal free cystine was determined using a cystine binding protein (CBP) assay (Oshima et al, 1974 J. Biol. Chem., 249:6033-6039). CBP was procured from Riverside Scientific. The assay has a sensitivity of 0.1 μM. Total cell protein was determined by a modification of the Lowry method (Lowry O. et al 1951 J. Biol. Chem., 193:265-275). Statistical analyses were performed using paired t test for means with SSPS for Windows. Results are mean+/−1.0 SD (FIG. 3).
as §1, §2
In another experiment, the cystine content was decreased in cystinotic cells from 2.3 to 0.5 nmols cystine/10^6 cells by pretreatment with MEA before incubation in cystine-free and serum-free Ham F12 medium. […] Cells were stained with CaspACE and analyzed. […]

[5] = tested on: normal fibroblasts; assay: Phase micrographs, apoptotic morphology; assay type: cell-based, human; conditions: normal cells with CDME added, TNF-α exposure
Source text: Phase micrographs (not shown) were also obtained of normal fibroblasts after TNF-α exposure alone, in normal fibroblasts in CDME, and in nephropathic fibroblasts after TNF-α exposure alone. Typical apoptotic morphology was observed, i.e., typical blebs in the plasma membrane are seen after treatment with TNF-a in both normal and cystinotic cell lines and the modulating effects of MEA and CDME was seen.

COC(=O)[C@@H](N)CSSC[C@H](N)C(=O)OC [CDME, cystine dimethyl ester]
toxicity to RPTE cells ([1]; 0.5 mM (concentration employed in fibroblasts)): toxic | percentage of cells undergoing apoptosis ([1]; RPTE cells, method states 0.5 mM for 16 hours, CaspASE, FACS): 39.7% | % Apoptosis [2]: 37.3% | apoptotic rate after exposure to CDME [3]: 18.7+/−5.4% | cystine content after treatment with CDME ([4]; increased from 0.4, before serum withdrawal): 1.3 nmols cystine/10^6 cells | cystine content after pre-exposure to CDME ([4]; normal content <0.1 nmol/mg protein, UV light experiment): 1.95 nmol/mg protein | apoptotic morphology in phase micrographs [5]: Enhanced apoptosis
